{"source": "patent US20090215884A1", "about": "“METHOD FOR WOUND HEALING” (priority 2005, published 2009)", "key": {"dermal fibroblasts [1]": {"test_system": "dermal fibroblasts", "experiment": "Fibroblast populated collagen lattice (FPCL) reorganization/contraction", "type": "cell-based, human", "conditions": "0.1 μg/ml PEP005", "from_the_text": "A normal adult skin biopsy (6 mm) was obtained (n=1), with informed consent, from an individual attending the Oral Surgery Clinic, School of Dentistry, Wales College of Medicine, Cardiff. Following the application of a local anaesthetic, the dermal biopsy was collected and adult dermal fibroblast cultures established by single cell suspension technique, following enzymic degradation of the specimen. This technique has previously been reliably used to establish viable primary cultures of both oral and dermal fibroblasts in vitro (Cook et al, 2000; Stephens et al, 2001; 2003). […]\nThe ability of dermal fibroblasts to remodel/reorganize their ECM environment in the presence of PEP005 was examined by fibroblast populated collagen lattices (FPCLs), according to Cook et al (2000). […] The degree of ECM reorganization/lattice contraction was quantified from three separate lattice diameter measurements performed on each of the three replicate samples, at days 1, 2, 3, 4, 5, 6, 7, 10 and 14, after initial fabrication. […]\nEach experiment was performed on two separate occasions, with the % reductions in lattice contraction and the MMP densitometric values obtained being expressed as an average for each group of samples"}, "dermal fibroblasts [2]": {"test_system": "dermal fibroblasts", "experiment": "Dermal fibroblast differentiation (α-smooth muscle actin expression)", "type": "cell-based, human", "conditions": "absence of TGF-β1", "method": "The effects of PEP005 on dermal fibroblast differentiation to myofibroblasts, was examined by the extent of α-smooth muscle actin expression by the differentiating dermal fibroblasts, following stimulation with TGF-β. Following trypsinization, the dermal fibroblasts were suspended in Fibroblast-Serum Containing Medium, containing 10% fetal calf serum, at a cell density of 2.5×10^4 cells/ml. Aliquots (250 μl/well) of the dermal fibroblast cell suspension were seeded into 8-well chamber slides (VWR International Ltd.) and maintained at 37° C., in a 5% CO2/95% air atmosphere, until approximately 30-40% confluent. […] Various controls (three chamber slide per control) were also established, including (i) Fibroblast-Serum Containing Medium alone, (ii) cells in Fibroblast-Serum Containing Medium (cytokeratin or vimentin 1° Ab control), (iii) cells in Fibroblast-Serum Containing Medium, containing 10 ng/ml TGF-β and 1% DMSO, and (iv) cells in Fibroblast-Serum Containing Medium, containing 1% DMSO.\nThe chamber slides were maintained at 37° C., in a 5% CO2/95% air atmosphere, for 3 days, by which time, the cells had reached approximately 75% confluence. Chamber slides were fixed in 1:1 ice cold, acetone:methanol (300 μl/well) for 20 min and blocked in 1% BSA in PBS, at 4° C., for 1 h. […]"}}, "data": [{"molecule": "C/C=C(/C)C(=O)O[C@H]1C(C)=C[C@]23C(=O)[C@@H](C=C(CO)[C@@H](O)[C@]12O)[C@H]1[C@@H](C[C@H]3C)C1(C)C", "note": "[PEP005, ingenol-3-angelate]", "values": [{"measurement": "Type I collagen lattice contraction", "setting": "dermal fibroblasts [1]", "value": "significantly increased"}, {"measurement": "α-smooth muscle actin expression", "setting": "dermal fibroblasts [2]; 1 μg/ml PEP005", "value": "detectable α-smooth muscle actin microfilaments"}, {"measurement": "α-smooth muscle actin expression", "setting": "dermal fibroblasts [2]; 10 μg/ml PEP005", "value": "detectable α-smooth muscle actin microfilaments"}]}]}
